From PubChem BioAssay AID743175 (Broad Institute, 2013)
Active and inactive are the calls of the source. The rule behind the calls is not given here.

Test system: not listed separately
Test: inhibitor activity on non-replicating M. tuberculosis, dose response, plate reader, dry powder (AID 743175)
Settings: Mycobacterium tuberculosis non-replicating, growth inhibition plate reader; at 23.5 µM (top of the series)
For `Cc1noc(C)c1NC(=O)Nc1ccc2c(c1)C(=O)N(C)[C@H]1CC[C@@H](CC(=O)NCc3ccc(Cl)cc3)O[C@@H]1CO2`, the activity change, negative = inhibition was -7.13% (inactive). For `Cc1noc(C)c1NC(=O)Nc1ccc2c(c1)C(=O)N(C)[C@@H]1CC[C@@H](CC(=O)NCc3ccc(Cl)cc3)O[C@H]1CO2`, the activity change, negative = inhibition was -4.47% (inactive). In the case of `O=C(C[C@@H]1C=C[C@H](NC(=O)Nc2cc(F)ccc2F)[C@H](CO)O1)NCc1ccc2c(c1)OCO2`, the activity change, negative = inhibition is reported as -1.22% (inactive). With `CNC[C@H]1OCCCC[C@@H](C)Oc2ccc(NC(=O)CCCN(C)C)cc2C(=O)N([C@H](C)CO)C[C@@H]1C` the activity change, negative = inhibition was 0.469% (inactive). With `C[C@H](C(=O)N(C)C[C@@H]1OCc2ccccc2-c2ccccc2C(=O)N([C@H](C)CO)C[C@H]1C)c1ccccc1` the activity change, negative = inhibition was -2.02% (inactive). With `C[C@@H]1CN([C@@H](C)CO)C(=O)c2ccccc2-c2ccccc2CO[C@H]1CN(C)C(=O)[C@H](C)c1ccccc1` the activity change, negative = inhibition was 6.24% (inactive). For `Cc1noc(C)c1NC(=O)Nc1ccc2c(c1)C(=O)N(C)[C@H]1CC[C@H](CC(=O)NCc3ccc(Cl)cc3)O[C@H]1CO2`, the activity change, negative = inhibition was -5.96% (inactive). For `O=C(C[C@@H]1C=C[C@@H](NC(=O)Nc2cc(F)ccc2F)[C@@H](CO)O1)NCc1ccc2c(c1)OCO2`, the activity change, negative = inhibition was 2.62% (inactive). In the case of `COCCNC(=O)C[C@@H]1C[C@@H]2c3cc(NC(=O)Nc4ccc(C(F)(F)F)cc4)ccc3O[C@@H]2[C@H](CO)O1`, the activity change, negative = inhibition is reported as 6.32% (inactive). In the case of `Cc1noc(C)c1NC(=O)Nc1ccc2c(c1)C(=O)N(C)[C@@H]1CC[C@H](CC(=O)NCc3ccc(Cl)cc3)O[C@H]1CO2`, the activity change, negative = inhibition is reported as -0.708% (inactive).

Same assay, conditions: Mycobacterium tuberculosis non-replicating, growth inhibition plate reader; at 26 µM (top of the series)
In the case of `C[C@H](CO)N1C[C@H](C)[C@@H](CN(C)C(=O)[C@H](C)c2ccccc2)OCc2ccccc2-c2ccccc2C1=O`, the activity change, negative = inhibition is reported as 4.38% (inactive). For `COCCNC(=O)C[C@H]1C[C@@H]2c3cc(NC(=O)Nc4ccc(C(F)(F)F)cc4)ccc3O[C@@H]2[C@@H](CO)O1`, the activity change, negative = inhibition was -5.53% (inactive). In the case of `COCCNC(=O)C[C@@H]1C[C@H]2c3cc(NC(=O)Nc4ccc(C(F)(F)F)cc4)ccc3O[C@H]2[C@@H](CO)O1`, the activity change, negative = inhibition is reported as 2.69% (inactive). With `C[C@H](C(=O)N(C)C[C@@H]1OCc2ccccc2-c2ccccc2C(=O)N([C@@H](C)CO)C[C@H]1C)c1ccccc1` the activity change, negative = inhibition was 1.76% (inactive). For `O=C(C[C@H]1C[C@@H]2c3cc(NC(=O)c4cccnc4)ccc3O[C@@H]2[C@@H](CO)O1)NCC(F)(F)F`, the activity change, negative = inhibition was 2.49% (inactive). In the case of `Cc1noc(C)c1NC(=O)Nc1ccc2c(c1)C(=O)N(C)[C@@H]1CC[C@H](CC(=O)NCc3ccc(Cl)cc3)O[C@@H]1CO2`, the activity change, negative = inhibition is reported as -6.75% (inactive). For `Cc1noc(C)c1NC(=O)Nc1ccc2c(c1)C(=O)N(C)[C@@H]1CC[C@@H](CC(=O)NCc3ccc(Cl)cc3)O[C@@H]1CO2`, the activity change, negative = inhibition was -1.24% (inactive). For `O=C(C[C@@H]1C[C@H]2c3cc(NC(=O)c4cccnc4)ccc3O[C@H]2[C@H](CO)O1)NCC(F)(F)F`, the activity change, negative = inhibition was 4.14% (inactive). In the case of `Cc1noc(C)c1NC(=O)Nc1ccc2c(c1)C(=O)N(C)[C@H]1CC[C@@H](CC(=O)NCc3ccc(Cl)cc3)O[C@H]1CO2`, the activity change, negative = inhibition is reported as 0.473% (inactive). In the case of `COCCNC(=O)C[C@H]1C[C@H]2c3cc(NC(=O)Nc4ccc(C(F)(F)F)cc4)ccc3O[C@H]2[C@H](CO)O1`, the activity change, negative = inhibition is reported as 5.95% (inactive). For `O=C(C[C@@H]1C[C@@H]2c3cc(NC(=O)c4cccnc4)ccc3O[C@@H]2[C@H](CO)O1)NCC(F)(F)F`, the activity change, negative = inhibition was -0.328% (inactive). With `O=C(C[C@H]1C=C[C@@H](NC(=O)Nc2cc(F)ccc2F)[C@H](CO)O1)NCc1ccc2c(c1)OCO2` the activity change, negative = inhibition was -2.19% (inactive). With `O=C(C[C@H]1C=C[C@H](NC(=O)Nc2cc(F)ccc2F)[C@@H](CO)O1)NCc1ccc2c(c1)OCO2` the activity change, negative = inhibition was -6.29% (inactive). For `COc1ccccc1C#Cc1ccc([C@H]2[C@@H](C#N)N(C(=O)C3CC3)[C@@H]2CO)cc1`, the activity change, negative = inhibition was -31.8% (inactive). In the case of `COCCNC(=O)C[C@@H]1C[C@@H]2c3cc(NC(=O)Nc4ccc(C(F)(F)F)cc4)ccc3O[C@@H]2[C@@H](CO)O1`, the activity change, negative = inhibition is reported as 9.37% (inactive). For `O=C(C[C@H]1C=C[C@H](NC(=O)Nc2cc(F)ccc2F)[C@H](CO)O1)NCc1ccc2c(c1)OCO2`, the activity change, negative = inhibition was 2.59% (inactive). With `C[C@@H](C(=O)N(C)C[C@@H]1OCc2ccccc2-c2ccccc2C(=O)N([C@@H](C)CO)C[C@@H]1C)c1ccccc1` the activity change, negative = inhibition was 3.38% (inactive). In the case of `C[C@H](C(=O)N(C)C[C@H]1OCc2ccccc2-c2ccccc2C(=O)N([C@H](C)CO)C[C@H]1C)c1ccccc1`, the activity change, negative = inhibition is reported as -2.72% (inactive). For `C[C@H](C(=O)N(C)C[C@@H]1OCc2ccccc2-c2ccccc2C(=O)N([C@H](C)CO)C[C@@H]1C)c1ccccc1`, the activity change, negative = inhibition was -7.59% (inactive). For `COCCNC(=O)C[C@H]1C[C@H]2c3cc(NC(=O)Nc4ccc(C(F)(F)F)cc4)ccc3O[C@H]2[C@@H](CO)O1`, the activity change, negative = inhibition was 6.87% (inactive). With `C[C@@H]1CN([C@H](C)CO)C(=O)c2ccccc2-c2ccccc2CO[C@H]1CN(C)C(=O)[C@H](C)c1ccccc1` the activity change, negative = inhibition was 3.43% (inactive). For `CNC[C@@H]1OCCCC[C@@H](C)Oc2ccc(NC(=O)CCCN(C)C)cc2C(=O)N([C@@H](C)CO)C[C@H]1C`, the activity change, negative = inhibition was 6.36% (inactive). With `CNC[C@H]1OCCCC[C@H](C)Oc2ccc(NC(=O)CCCN(C)C)cc2C(=O)N([C@@H](C)CO)C[C@@H]1C` the activity change, negative = inhibition was -0.478% (inactive). In the case of `COCCNC(=O)C[C@@H]1C[C@H]2c3cc(NC(=O)Nc4ccc(C(F)(F)F)cc4)ccc3O[C@H]2[C@H](CO)O1`, the activity change, negative = inhibition is reported as -6% (inactive). With `C[C@H](C(=O)N(C)C[C@H]1OCc2ccccc2-c2ccccc2C(=O)N([C@@H](C)CO)C[C@H]1C)c1ccccc1` the activity change, negative = inhibition was -0.472% (inactive). With `O=C(C[C@@H]1C=C[C@@H](NC(=O)Nc2cc(F)ccc2F)[C@H](CO)O1)NCc1ccc2c(c1)OCO2` the activity change, negative = inhibition was -1.51% (inactive). With `COCCNC(=O)C[C@H]1C[C@@H]2c3cc(NC(=O)Nc4ccc(C(F)(F)F)cc4)ccc3O[C@@H]2[C@H](CO)O1` the activity change, negative = inhibition was -0.81% (inactive). With `C[C@H](C(=O)N(C)C[C@H]1OCc2ccccc2-c2ccccc2C(=O)N([C@@H](C)CO)C[C@@H]1C)c1ccccc1` the activity change, negative = inhibition was -9.24% (inactive). For `C[C@H](C(=O)N(C)C[C@H]1OCc2ccccc2-c2ccccc2C(=O)N([C@H](C)CO)C[C@@H]1C)c1ccccc1`, the activity change, negative = inhibition was -6.85% (inactive). For `O=C(C[C@H]1C[C@H]2c3cc(NC(=O)c4cccnc4)ccc3O[C@H]2[C@@H](CO)O1)NCC(F)(F)F`, the activity change, negative = inhibition was 4.47% (inactive). For `CNC[C@@H]1OCCCC[C@@H](C)Oc2ccc(NC(=O)CCCN(C)C)cc2C(=O)N([C@H](C)CO)C[C@H]1C`, the activity change, negative = inhibition was -0.491% (inactive). In the case of `C[C@H](CO)N1C[C@H](C)[C@H](CN(C)C(=O)[C@H](C)c2ccccc2)OCc2ccccc2-c2ccccc2C1=O`, the activity change, negative = inhibition is reported as -5.31% (inactive). In the case of `C[C@@H](C(=O)N(C)C[C@H]1OCc2ccccc2-c2ccccc2C(=O)N([C@@H](C)CO)C[C@@H]1C)c1ccccc1`, the activity change, negative = inhibition is reported as -10.5% (inactive). In the case of `O=C(C[C@H]1C=C[C@@H](NC(=O)Nc2cc(F)ccc2F)[C@@H](CO)O1)NCc1ccc2c(c1)OCO2`, the activity change, negative = inhibition is reported as 4.07% (inactive). For `C[C@H](C(=O)N(C)C[C@@H]1OCc2ccccc2-c2ccccc2C(=O)N([C@@H](C)CO)C[C@@H]1C)c1ccccc1`, the activity change, negative = inhibition was -3.21% (inactive). For `COc1ccccc1C#Cc1ccc([C@@H]2[C@@H](C#N)N(C(=O)C3CC3)[C@@H]2CO)cc1`, the activity change, negative = inhibition was -12.4% (inactive). With `O=C(C[C@H]1C[C@H]2c3cc(NC(=O)c4cccnc4)ccc3O[C@H]2[C@H](CO)O1)NCC(F)(F)F` the activity change, negative = inhibition was 10.5% (inactive). With `C[C@@H]1CN([C@@H](C)CO)C(=O)c2ccccc2-c2ccccc2CO[C@@H]1CN(C)C(=O)[C@H](C)c1ccccc1` the activity change, negative = inhibition was 5.94% (inactive). With `O=C(C[C@@H]1C=C[C@H](NC(=O)Nc2cc(F)ccc2F)[C@@H](CO)O1)NCc1ccc2c(c1)OCO2` the activity change, negative = inhibition was -6.79% (inactive). For `C[C@@H]1CN([C@H](C)CO)C(=O)c2ccccc2-c2ccccc2CO[C@@H]1CN(C)C(=O)[C@H](C)c1ccccc1`, the activity change, negative = inhibition was -3.88% (inactive). In the case of `Cc1noc(C)c1NC(=O)Nc1ccc2c(c1)C(=O)N(C)[C@H]1CC[C@H](CC(=O)NCc3ccc(Cl)cc3)O[C@@H]1CO2`, the activity change, negative = inhibition is reported as -8.85% (inactive). In the case of `CNC[C@@H]1OCCCC[C@@H](C)Oc2ccc(NC(=O)CCCN(C)C)cc2C(=O)N([C@H](C)CO)C[C@@H]1C`, the activity change, negative = inhibition is reported as -5.36% (inactive). In the case of `CNC[C@H]1OCCCC[C@H](C)Oc2ccc(NC(=O)CCCN(C)C)cc2C(=O)N([C@H](C)CO)C[C@@H]1C`, the activity change, negative = inhibition is reported as 0.293% (inactive).

Same assay, conditions: Mycobacterium tuberculosis non-replicating, growth inhibition plate reader; at 38 µM (top of the series)
For `CCCC(C)C(=O)Nc1ccc(Cl)cn1` (centres undefined), the activity change, negative = inhibition was -14.4% (inactive). In the case of `NC(=O)COc1ccc2cc(-c3ccc(F)cc3)c(=O)oc2c1`, the activity change, negative = inhibition is reported as -7.91% (inactive). For `CCCOC(=O)c1ccc(NC(=O)c2ccc(Br)o2)cc1`, the activity change, negative = inhibition was -12.8% (inactive). For `CCOC(=O)c1c(C)n(C)c2ccc(OC(C)C(=O)OC)cc12` (centres undefined), the activity change, negative = inhibition was -6.52% (inactive). For `C=CCn1c(NC(=O)c2ccccc2)nc2ccccc21`, the activity change, negative = inhibition was -76.7% (inactive). With `O=C(OCCCCN1C(=O)c2ccccc2C1=O)c1ccc(Br)o1` the activity change, negative = inhibition was -2.9% (inactive). For `CC(=O)c1ccc(NC(=O)c2cc(CC(C)C)on2)cc1`, the activity change, negative = inhibition was -14.7% (inactive). For `O=C(OCc1ccc(Cl)c(Cl)c1)c1ccccn1`, the activity change, negative = inhibition was -7.55% (inactive). For `Fc1ccc(-c2ccc(CNCc3ccccn3)o2)cc1Cl`, the activity change, negative = inhibition was -52% (inactive).

Test system: Mycobacterium tuberculosis non-replicating, growth inhibition plate reader
Test: as above
Settings: not given
In the case of `Cc1cccc(C)c1N1C(=O)CC(N2CCSCC2)C1=O` (centres undefined), the AC90 is reported as 5.72 µM. In the case of `COc1ccccc1C#Cc1ccc([C@@H]2[C@H](C#N)N(C(=O)C3CC3)[C@H]2CO)cc1`, the AC90 is reported as > 23.5 µM (inactive).
